Results reported in patent US11382877B2, “Formulation of (E)-2,4,6-trimethoxystyryl-3-[(carboxymethyl)amino]-4-methoxybenzylsulphone with enhanced stability and bioavailability” (ONCONOVA THERAPEUTICS, INC., priority 2017, dated 2022).
Where a name gives a salt, the structure may show the parent alone.

What was measured:
[1] = administered orally; cited from earlier work
[2] = tested on: immature bone marrow cells; experiment: Higher risk MDS patients who previously failed Vidaza or Dacogen; type: in vivo; details: higher risk MDS patients after failure of azacitidine or decitabine
From the text: In another embodiment, the efficacy of Rigosertib was shown in higher risk MDS patients who had previously failed treatment with Vidaza (azacitidine) or Dacogen (decitabine). […] These patients experienced at least a 50 percent decrease or stabilization in the number of immature bone marrow cells, and their median survival was about 36 weeks.

[3] = tested on: immature bone marrow cells (blasts); experiment: Intravenous infusion trials in MDS patients; type: in vivo
Protocol: According to one embodiment, Rigosertib was given as an intravenous infusion to MDS patients. In one trial, patients received 800 mg Rigosertib for two to five days every other week. According to another embodiment, patients received 650 to 1,700 mg Rigosertib for three to six days every other week. According to yet another embodiment, patients were initially treated with 800 mg to 1,500 mg Rigosertib for two days every week for three weeks followed by one week without treatment. The treatment schedule in these studies was later changed to 1,800 mg Rigosertib per day for three days every other week.

[4] = Phase 2 study in lower risk transfusion-dependent MDS patients, continuous vs intermittent oral administration, urinary adverse events; type: in vivo
Protocol: Soft gelatin capsule of Rigosertib was tested in this phase 2 study in LR (Lower Risk intermediate-1 or low risk per IPSS classification) transfusion-dependent MDS patients. The capsules (560 mg) were administered twice a day, under fasting conditions, approximately 12 hours apart. The total dose of drug was 1120 mg per day. Various treatment regimens were tested: • Continuous administration, i.e 4 out of 4 weeks. 9 patients were treated. • Intermittent administration; i.e 2 weeks on and one week off. 35 patients were treated. Safety assessment: medical history, physical examination, vital signs (blood pressure, temperature, respiration rate, and pulse), weight, standard 12-lead ECG, laboratory evaluations, and toxicity and AE assessments were monitored throughout the study. Urinary Adverse Events are pollakiuria, micturition urgency, urinary tract pain, hematuria and dysuria.

[5] = Phase II, Part 2 study of shorter spacing between two oral doses with azacitidine, urinary adverse events; type: in vivo, patients; details: doses administered about 8 hours apart
Protocol: This study was conducted in patients with high risk MDS. RAEB-t (Refractory Anemia with Excess Blasts in Transformation)/non-proliferative AML were eligible but patients with CMML (Chronic Myelomonocytic Leukemia) were excluded.
The Phase II, Part 2 component of the study consisted of 2 cohorts of up to 40 evaluable patients randomized 1:1 into 2 cohorts of up to 20 patients each to receive 1120 mg of rigosertib over 24 hours: either 560 mg in the morning before breakfast in the fasting state and 560 mg in the afternoon, or 840 mg in the morning before breakfast in the fasting state and 280 mg in the afternoon. The afternoon dose in both cohorts must be administered at 3 PM (±1 hr) at least 2 hours after lunch. Each cohort will be stratified among HMA (hypomethylating agents) naïve and HMA refractory patients.
Each patient was required to complete a diary indicating the day and time of drug intake and record daily urinary dipstick pH and microscopic hematuria test. Rigosertib was supplied as 280 mg and 70 mg (in the event that different doses are needed) capsules by Onconova. […]
Safety assessment: medical history, physical examination, vital signs (blood pressure, temperature, respiration rate, and pulse), weight, standard 12-lead ECG, laboratory evaluations, and toxicity and AE assessments were monitored throughout the study. […]

[6] = 560 mg bid q12 hrs, intermittent 2 weeks on/1 week off, n = 35

SMILES: COc1cc(OC)c(/C=C/S(=O)(=O)Cc2ccc(OC)c(NCC(=O)O)c2)c(OC)c1 [Rigosertib, (E)-2,4,6-trimethoxystyryl-3-[(carboxymethyl)amino]-4-methoxybenzylsulphone sodium salt]
- Common adverse event [1]: urothelial toxicity
- Decrease or stabilization in the number of immature bone marrow cells [2]: ≥ 50%
- Median survival [2]: about 36 weeks
- Decrease or stabilization in the number of immature bone marrow cells (blasts) [3]: ≥ 50%
- Incidence of Urinary AEs, Grade 1/2 (% of Patients) [4, 6]: 71%
- Incidence of Urinary AEs, Grade 1/2, number of patients [4, 6]: 25
- Incidence of Urinary AEs, Grade 3 (% of Patients) [4, 6]: 23%
- Incidence of Urinary AEs, Grade 3, number of patients [4, 6]: 8
- Urinary adverse events (in words) ([4]; continuous administration 4 out of 4 weeks, 560 mg twice a day): high urinary adverse events
- Tolerability compared to continuous administration ([4]; intermittent administration 2 weeks on and one week off, 560 mg twice a day): better tolerated
- Incidence of urinary adverse events (in words) [5]: dramatic reduction
